This is an account of results in patent US20230330060A1, “COMPOUNDS FOR TREATMENT OF HEART FAILURE” (Sulfateq B.V., priority 2020, published 2023).

Test [1] deals with doxorubicin-induced heart failure. Briefly: Cardiac oxidative stress: lipid peroxidation (TBARS). Conditions: doxorubicin rats; SUL-150 in prophylaxis or therapeutic regime. Type of test: in vivo, rat. Here is the method: The SUL-150 solution was sprayed homogeneously over standard food pellets (1.25 kg). […] Food pellets were freshly prepared weekly. With the approximation of 200 mg·kg^−1 SUL-150 in the food pellets and a daily dietary intake of 25 gram for a 350 gram rat, daily dosing of SUL-150 approximates 5 mg·day^−1. Male outbred Wistar rats of 250-300 grams (10-12 weeks old) were kept on a 12 h light/dark cycle and received a standard diet with distilled water ad libitum. Thirty rats were administered with doxorubicin (2 mg·kg^−1) weekly via intraperitoneal injection for 9 consecutive weeks and were left either untreated (standard chow diet, 10 rats), or received a diet supplemented with SUL-150 as prophylaxis (prior to the 1st doxorubicin administration, 10 rats) or therapy (starting after the 6th doxorubicin administration, 10 rats). Sham control rats (8 rats) were administered with saline weekly via intraperitoneal injection for 9 consecutive weeks and received a standard diet. All rats were subjected to cardiac function assessment 12 weeks after the first doxorubicin administration. Cardiac tissue samples were homogenized in ddH2O using a TissueRuptor II (Qiagen, Hilden, Germany) followed by sonication at 20 kHz for 3×1 min (Sonopuls 2000, Bandelin, Berlin, Germany) and centrifugation at 14000 g to pellet insoluble proteins. […]

The next test relates to H9C2 cardiomyocytes. Briefly: Quantification of phenylephrine-induced EGFP synthesis as surrogate for cell size (hypertrophy). It counts as cell-based, rat. Here is the method:
Rat H9C2 cardiomyoblasts (ATCC CRL-1446) were maintained in DMEM medium containing 10% fetal bovine serum and 1% Penicillin-Streptomycin solution (Sigma-Aldrich) and passaged when the cultures reach a confluency of 70%. Prior to experiments, H9C2 myoblasts were differentiated to cardiomyocytes by serum reduction (to 1%) and stimulation with 20 nM retinoic acid for 5 days. Differentiated H9C2 cardiomyocytes were seeded at 0.6·10^5 cells/cm^2 for all experiments.
H9C2 cardiomyocytes (0.6·10^5 cells/cm2) were infected with CMV-copGPF (MOI 10) in culture medium without serum for 24 h. H9C2 cardiomyocytes were pre-incubated with 30 μM SUL compounds under standard culture conditions for 30 min and then stimulated with phenylephrine (dose range 2·10^−5 to 1·10^−11 M) for an additional period of 24 h. Thereafter H9C2 cardiomyocytes were lysed in 100 μl soft lysis buffer (25 mM Tris, 2 mM Dithiothreitol, 2 mM EDTA, 1% Triton X-100, pH 7.4). per well and fluorescence intensity of the obtained supernatant was recorded in a CLARIOStar Plus plate reader (BMG Labtech) equipped with a FITC filter set (excitation 488 nm with 10 nm bandwidth; emission 515 with a 20 nm bandwidth).
All experiments were performed in triplicate per condition and averaged. Data obtained from two individual experiments were used for evaluation in GraphPad Prism 8.0 (GraphPad Software Inc, Ca). Average H9C2 cardiomyocyte cell size was associated to average EGFP levels using linear regression. Phenylephrine-induced EGFP synthesis was normalized, using baseline levels as 0% and maximum EGFP recordings as 100%. All datasets were normalized to vehicle controls. 4 parameter non-linear regression was used to determine the efficacy of potency of phenylephrine to induce GFP synthesis. The efficacy of SUL compounds to inhibit phenylephrine-induced EGFP synthesis was calculated as 100%-Emax, wherein Emax is the maximal effect evoked by phenylephrine.

For test [2], the system named is doxorubicin-induced heart failure. In words: Cardiac fibrosis (picrosirius red, left-ventricular interstitial fibrosis). Type of test: in vivo, rat. As to conditions: doxorubicin rats; SUL-150 via food pellets, prophylaxis or therapeutic group. The protocol:
The SUL-150 solution was sprayed homogeneously over standard food pellets (1.25 kg). […] Food pellets were freshly prepared weekly. With the approximation of 200 mg·kg^-1 SUL-150 in the food pellets and a daily dietary intake of 25 gram for a 350 gram rat, daily dosing of SUL-150 approximates 5 mg·day^-1. Male outbred Wistar rats of 250-300 grams (10-12 weeks old) were kept on a 12 h light/dark cycle and received a standard diet with distilled water ad libitum. Thirty rats were administered with doxorubicin (2 mg·kg^-1) weekly via intraperitoneal injection for 9 consecutive weeks and were left either untreated (standard chow diet, 10 rats), or received a diet supplemented with SUL-150 as prophylaxis (prior to the 1st doxorubicin administration, 10 rats) or therapy (starting after the 6th doxorubicin administration, 10 rats). Sham control rats (8 rats) were administered with saline weekly via intraperitoneal injection for 9 consecutive weeks and received a standard diet. All rats were subjected to cardiac function assessment 12 weeks after the first doxorubicin administration. […] Samples were imaged on a NanoZoomer S60 Digital slide scanner (Hammamatsu Photonics) and left-ventricular interstitial fibrosis (i.e. non-perivascular fibrosis) was quantified using Aperio ImageScope (Leica Biosystems, Nussloch, Germany).

On to `Cc1c(C)c2c(c(C)c1O)CC[C@](C)(C(=O)N1CCNCC1)O2` [SUL-150, (R)-(6-hydroxy-2,5,7,8-tetramethylchroman-2-yl)(piperazin-1-yl)methanone], for which, in test [1], the “Cardiac lipid peroxidation products (TBARS), FIG. 5A” value is listed as “mitigates cardiac lipid peroxidation”. The “SUL EGFP Inhibition (%)” value in the test on H9C2 cardiomyocytes (30 μM SUL compound, calculated as 100%-Emax) is reported as 66.49%. Moreover, the “Expression of EGFP induced by phenylephrine (FIG. 3)” value in the test with H9C2 cardiomyocytes (preincubation with 30 μM compound) is “reduced the expression of EGFP”. In addition, the “Fibrogenic response in the left ventricle interstitium (collagen deposition), FIG. 4” value in test [2] was “blocks this fibrogenic reaction”.
